In patent US20200060276A1, “THIAZOLE COMPOUND AND HERBICIDE” (OAT Agrio Co., Ltd., priority 2017, published 2020):

Experiments:
Assay type in all cases: in vivo
Scirpus juncoides = test: Test for Herbicidal Effect in Flooding Treatment (#1), SCIJU; details: for SCIJU #1 herbicidal effect (growth inhibition grade): flooding treatment at seeding, dose 2 kg/ha, visual observation on day 21
In short: (§1)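 Visual scores from 0 (<10% inhibition) to 5 (≥90% or complete withering) were taken 21 days after treatment of glasshouse-grown plants. Seeds were sown in soil flooded for 24 h beforehand, and compound was applied dropwise onto the surface at 2 kg/ha as an acetone solution diluted in water with Tween 80.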

[1] = tested on: Echinochloa crus-galli (L.) P. Beauv. var. formosensis Ohwi; test: Test for Herbicidal Effect in Flooding Treatment (#2), ECHDG at 2-2.5 leaf stage; details: for inhibition at 200 g/ha: Echinochloa crus-galli, 504 h, flooding treatment (#2), ECHDG at 2-2.5 leaf stage, dose of 0.2 kg/ha, day 21, visual observation, read-out: growth inhibition effect; for ECHDG (2-2.5L) #2 herbicidal effect (growth inhibition grade): flooding treatment at 2-2.5 leaf stage, dose 0.2 kg/ha, visual observation on day 21
In short: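 Scoring is a visual 0–5 scale of growth inhibition (0 below 10%, 5 at 90% or more or full withering), taken 21 days after treatment in a glasshouse. Dose was 0.2 kg/ha, applied as acetone/Tween 80 aqueous solution onto flooded soil once seedlings reached the 2–2.5 leaf stage.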

[2] = tested on: Echinochloa crus-galli (L.) P. Beauv. var. formosensis Ohwi; test: Test for Herbicidal Effect in Flooding Treatment (#1), ECHDG; details: for ECHDG #1 herbicidal effect (growth inhibition grade): flooding treatment at seeding, dose 2 kg/ha, visual observation on day 21
In short: as §1

Monochoria vaginalis = test: Test for Herbicidal Effect in Flooding Treatment (#1), MONVA; details: for MONVA #1 herbicidal effect (growth inhibition grade): flooding treatment at seeding, dose 2 kg/ha, visual observation on day 21
Description: (#1) Test for Herbicidal Effect in Flooding Treatment: Styrol cups each having an opening diameter of 8 cm (about 52 cm^2) were respectively filled with soil (45 ml) which had been passed through a sieve (2 mm). Water (about 115 ml) was mixed with the soil such that the soil was flooded. After the soil stood still for 24 hours, Monochoria vaginalis, Echinochloa crus-galli (L.) P. Beauv. var. formosensis Ohwi, Cyperus difformis (umbrella sedge), and Scirpus juncoides were seeded. Each of the compounds of the present invention was dissolved in acetone, and the obtained product was then diluted with water containing Tween 80®. Each of the resultant chemical solutions was dropped on the entire surface of an associated one of treatment sections, so that each section was treated with 1 ml of the respective chemical solution (a dose of 2 kg/ha). After the treatment, the plants were grown in a glasshouse. On day 21, a survey was conducted on the herbicidal activity by visual observation, and evaluation was made according to the following criteria. 0: Growth inhibition effect is less than 10%. 1: Growth inhibition effect is equal to or greater than 10%, and less than 30%. 2; Growth inhibition effect is equal to or greater than 30%, and less than 50%. 3: Growth inhibition effect equal to or greater than 50%, and less than 70%. 4: Growth inhibition effect is equal to or greater than 70%, and less than 90%. 5: Growth inhibition effect is equal to or greater than 90%, or complete withering is achieved. ECHDG=Echinochloa crus-galli (L.) P. Beauv. var. formosensis Ohwi, MONVA=Monochoria vaginalis, SCIJU=Scirpus juncoides, CYMIC=Cyperus microiria.

SMILES	SCIJU #1 herbicidal effect (growth inhibition rating 0-5) (Scirpus juncoides; flooding treatment #1)	ECHDG (2-2.5L) #2 herbicidal effect (growth inhibition rating 0-5) ([1]; flooding treatment #2, 2-2.5 leaf stage)	ECHDG #1 herbicidal effect (growth inhibition rating 0-5) ([2]; flooding treatment #1)	MONVA #1 herbicidal effect (growth inhibition rating 0-5) (Monochoria vaginalis; flooding treatment #1)	SCIJU #1 herbicidal effect (growth inhibition grade) (Scirpus juncoides)	inhibition at 200 g/ha [1] [%]	ECHDG (2-2.5L) #2 herbicidal effect (growth inhibition grade) [1]	ECHDG #1 herbicidal effect (growth inhibition grade) [2]	MONVA #1 herbicidal effect (growth inhibition grade) (Monochoria vaginalis)
[O-][S+](Cc1c(F)cccc1OCC(F)(F)C(F)F)c1ncc(Br)s1 (stereo not shown) [Compound 1B-26]	5 (Growth inhibition effect is equal to or greater than 90%, or complete withering is achieved)	4 (Growth inhibition effect is equal to or greater than 70%, and less than 90%)	5 (Growth inhibition effect is equal to or greater than 90%, or complete withering is achieved)	5 (Growth inhibition effect is equal to or greater than 90%, or complete withering is achieved)					
COc1cccc(Cl)c1CS(=O)(=O)c1ncc(Cl)s1 [Compound 1C-6]					5 (Growth inhibition effect is equal to or greater than 90%, or complete withering is achieved)	≥ 90	5 (Growth inhibition effect is equal to or greater than 90%, or complete withering is achieved)	5 (Growth inhibition effect is equal to or greater than 90%, or complete withering is achieved)	5 (Growth inhibition effect is equal to or greater than 90%, or complete withering is achieved)
COc1cccc(C(F)(F)F)c1CS(=O)(=O)c1ncc(Cl)s1 [Compound 1C-7]					5 (Growth inhibition effect is equal to or greater than 90%, or complete withering is achieved)		5 (Growth inhibition effect is equal to or greater than 90%, or complete withering is achieved)	5 (Growth inhibition effect is equal to or greater than 90%, or complete withering is achieved)	5 (Growth inhibition effect is equal to or greater than 90%, or complete withering is achieved)
CCOc1ccc(Cl)c(F)c1CS(=O)(=O)c1ncc(Cl)s1 [Compound 1C-32]					5 (Growth inhibition effect is equal to or greater than 90%, or complete withering is achieved)		5 (Growth inhibition effect is equal to or greater than 90%, or complete withering is achieved)	5 (Growth inhibition effect is equal to or greater than 90%, or complete withering is achieved)	5 (Growth inhibition effect is equal to or greater than 90%, or complete withering is achieved)
CCOc1ccc(Cl)c(Cl)c1CS(=O)(=O)c1ncc(Cl)s1 [Compound 1C-33, 5-chloro-2-[(2-ethoxy-5,6-dichlorophenyl)(methanesulfonyl)]-1,3-thiazole]					5 (Growth inhibition effect is equal to or greater than 90%, or complete withering is achieved)	≥ 90	5 (Growth inhibition effect is equal to or greater than 90%, or complete withering is achieved)	5 (Growth inhibition effect is equal to or greater than 90%, or complete withering is achieved)	5 (Growth inhibition effect is equal to or greater than 90%, or complete withering is achieved)
O=S(=O)(Cc1c(Cl)cccc1OC(F)F)c1ncc(Cl)s1 [Compound 1C-42]					5 (Growth inhibition effect is equal to or greater than 90%, or complete withering is achieved)		5 (Growth inhibition effect is equal to or greater than 90%, or complete withering is achieved)	5 (Growth inhibition effect is equal to or greater than 90%, or complete withering is achieved)	5 (Growth inhibition effect is equal to or greater than 90%, or complete withering is achieved)
O=S(=O)(Cc1c(F)cccc1OC(F)F)c1ncc(Cl)s1 [Compound 1C-43]					5 (Growth inhibition effect is equal to or greater than 90%, or complete withering is achieved)		5 (Growth inhibition effect is equal to or greater than 90%, or complete withering is achieved)	5 (Growth inhibition effect is equal to or greater than 90%, or complete withering is achieved)	5 (Growth inhibition effect is equal to or greater than 90%, or complete withering is achieved)
O=S(=O)(Cc1c(F)cc(F)cc1OC(F)F)c1ncc(Cl)s1 [Compound 1C-44]					5 (Growth inhibition effect is equal to or greater than 90%, or complete withering is achieved)		5 (Growth inhibition effect is equal to or greater than 90%, or complete withering is achieved)	5 (Growth inhibition effect is equal to or greater than 90%, or complete withering is achieved)	5 (Growth inhibition effect is equal to or greater than 90%, or complete withering is achieved)
O=S(=O)(Cc1c(OC(F)F)ccc(Cl)c1F)c1ncc(Cl)s1 [Compound 1C-45]					5 (Growth inhibition effect is equal to or greater than 90%, or complete withering is achieved)		5 (Growth inhibition effect is equal to or greater than 90%, or complete withering is achieved)	5 (Growth inhibition effect is equal to or greater than 90%, or complete withering is achieved)	5 (Growth inhibition effect is equal to or greater than 90%, or complete withering is achieved)
O=S(=O)(Cc1c(Cl)cccc1OC(F)(F)F)c1ncc(Cl)s1 [Compound 1C-49]					5 (Growth inhibition effect is equal to or greater than 90%, or complete withering is achieved)		5 (Growth inhibition effect is equal to or greater than 90%, or complete withering is achieved)	5 (Growth inhibition effect is equal to or greater than 90%, or complete withering is achieved)	5 (Growth inhibition effect is equal to or greater than 90%, or complete withering is achieved)
O=S(=O)(Cc1c(F)cccc1OCC(F)F)c1ncc(Cl)s1 [Compound 1C-50]					5 (Growth inhibition effect is equal to or greater than 90%, or complete withering is achieved)		5 (Growth inhibition effect is equal to or greater than 90%, or complete withering is achieved)	5 (Growth inhibition effect is equal to or greater than 90%, or complete withering is achieved)	5 (Growth inhibition effect is equal to or greater than 90%, or complete withering is achieved)
O=S(=O)(Cc1c(Cl)cccc1OCC(F)F)c1ncc(Cl)s1 [Compound 1C-51]					5 (Growth inhibition effect is equal to or greater than 90%, or complete withering is achieved)		5 (Growth inhibition effect is equal to or greater than 90%, or complete withering is achieved)	5 (Growth inhibition effect is equal to or greater than 90%, or complete withering is achieved)	5 (Growth inhibition effect is equal to or greater than 90%, or complete withering is achieved)
O=S(=O)(Cc1c(OCC(F)F)cccc1C(F)(F)F)c1ncc(Cl)s1 [Compound 1C-52]					5 (Growth inhibition effect is equal to or greater than 90%, or complete withering is achieved)		5 (Growth inhibition effect is equal to or greater than 90%, or complete withering is achieved)	5 (Growth inhibition effect is equal to or greater than 90%, or complete withering is achieved)	5 (Growth inhibition effect is equal to or greater than 90%, or complete withering is achieved)
O=S(=O)(Cc1ccccc1OCC(F)(F)F)c1ncc(Cl)s1 [Compound 1C-53]					5 (Growth inhibition effect is equal to or greater than 90%, or complete withering is achieved)		5 (Growth inhibition effect is equal to or greater than 90%, or complete withering is achieved)	5 (Growth inhibition effect is equal to or greater than 90%, or complete withering is achieved)	5 (Growth inhibition effect is equal to or greater than 90%, or complete withering is achieved)
